Read-outs that look alike come from different tables or passages of the source.
Legend:
[1] = biological target: T1, c-Met (baculovirus expressed human c-Met kinase domain P948-S1343) (Homo sapiens, UniProt P08581); assay: c-Met Luciferase-Coupled Chemiluminescent Kinase assay (LCCA); type: biochemical;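 further: kinase activity read as percent ATP left after reaction, by luciferase-luciferin chemiluminescence, with 1 µM ATP and 1 µM poly-EY substrate, 2 h at ambient temperature, 10-point dose-response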
T1 construct: human c-Met kinase domain P948-S1343; host or cells: baculovirus expression

[2] = biological target: T2, KDR (baculovirus expressed human KDR kinase domain D807-V1356) (Homo sapiens, UniProt P35968); assay: biochemical;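 further: Luciferase-coupled chemiluminescent kinase assay, activity read as percent ATP left after 4 h reaction at ambient temperature, ATP near KM, 10-point dose-response in 384-well plates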
T2 construct: human KDR kinase domain D807-V1356; host or cells: baculovirus expression

[3] = Table 4, inhibition as IC50 class

T2 sequence (P35968 807-1356): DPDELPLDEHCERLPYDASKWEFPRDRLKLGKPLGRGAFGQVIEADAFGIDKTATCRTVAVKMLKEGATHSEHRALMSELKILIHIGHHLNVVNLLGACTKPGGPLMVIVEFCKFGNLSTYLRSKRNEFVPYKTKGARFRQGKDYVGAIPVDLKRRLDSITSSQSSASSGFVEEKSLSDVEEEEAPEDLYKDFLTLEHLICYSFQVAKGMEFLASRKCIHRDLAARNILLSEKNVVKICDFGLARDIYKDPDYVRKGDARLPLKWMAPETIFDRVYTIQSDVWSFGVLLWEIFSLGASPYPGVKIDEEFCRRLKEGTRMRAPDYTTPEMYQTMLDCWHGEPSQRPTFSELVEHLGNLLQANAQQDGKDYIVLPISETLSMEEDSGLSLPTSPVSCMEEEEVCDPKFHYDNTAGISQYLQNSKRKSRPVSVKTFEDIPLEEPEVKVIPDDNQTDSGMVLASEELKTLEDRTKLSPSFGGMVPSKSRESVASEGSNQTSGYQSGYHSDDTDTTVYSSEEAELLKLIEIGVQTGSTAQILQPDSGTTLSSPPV
T1 sequence (P08581 1011-1343 limits assumed): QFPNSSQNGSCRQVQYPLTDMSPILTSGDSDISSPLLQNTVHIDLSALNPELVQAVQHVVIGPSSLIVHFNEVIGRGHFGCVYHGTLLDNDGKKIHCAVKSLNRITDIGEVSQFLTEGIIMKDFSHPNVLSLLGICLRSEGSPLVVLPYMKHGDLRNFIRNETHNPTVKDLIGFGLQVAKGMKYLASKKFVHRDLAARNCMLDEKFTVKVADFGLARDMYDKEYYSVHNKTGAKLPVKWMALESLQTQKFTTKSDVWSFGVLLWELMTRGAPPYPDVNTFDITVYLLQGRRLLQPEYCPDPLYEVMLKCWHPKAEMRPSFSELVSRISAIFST

Compound | IC50 [1] | IC50 [2] | IC50 [2, 3] | IC50 [1, 3]
COc1cc2nccc(Oc3ccc(N4CCN(C(=O)Cc5ccccc5)C4=O)cc3F)c2cc1OC [Entry 6] | 50 to 500 nM |  |  | 
COc1cc2nccc(Oc3ccc(N(Cc4ccccc4)S(=O)(=O)NCc4ccccc4)cc3F)c2cc1OC [Entry 66] | 500 to 5000 nM |  |  | 
COc1cc2nccc(Oc3ncc(NC(=O)C(=O)NCCc4ccccc4)cc3Cl)c2cc1OC [Entry 69] | 500 to 5000 nM |  |  | 
COc1cc2nccc(Oc3cc4sc(NCc5cccc(C(F)(F)F)c5)nc4cc3F)c2cc1OC [Entry 85] | 500 to 5000 nM |  |  | 
COc1cc2nccc(Oc3cc4sc(NCCc5cccc(C(F)(F)F)c5)nc4cc3F)c2cc1OC [Entry 86] | 500 to 5000 nM |  |  | 
COc1cc2nccc(Oc3ncc(NC(=O)CNCc4ccccc4)cc3Cl)c2cc1OC [Entry 93] | 500 to 5000 nM |  |  | 
COc1cc2nccc(Oc3ncc(NC(=O)CC(=O)Nc4ccc(Cl)cc4)cc3Cl)c2cc1OC [Entry 107] | 50 to 500 nM |  |  | 
COc1cc2nccc(Oc3ccc(NC(=O)/C(C)=N/OCc4ccccc4)cc3)c2cc1OC [Example 110, (2E)-N-(4-{[6,7-bis(methyloxy)quinolin-4-yl]oxy}phenyl)-2-{[(phenylmethyl)oxy]imino} propanamide] | 50 to 500 nM | 50 to 500 nM |  | 
COc1cc2nccc(Oc3ccc(NC(=O)[C@@H]4CCCN4Cc4ccccc4)cc3)c2cc1OC [Example 111, N-(4-{[6,7-bis(methyloxy)quinolin-4-yl]oxy}phenyl)-1-(phenylmethyl)prolinamide] | 500 to 5000 nM | 500 to 5000 nM |  | 
COc1cc2nccc(Oc3ccc(N4CC(Cc5ccccc5)NC4=O)cc3)c2cc1OC (stereo not shown) [Example 113, 1-(4-{[6,7-bis(methyloxy)quinolin-4-yl]oxy}phenyl)-4-(phenylmethyl)imidazolidin-2-one] | 500 to 5000 nM | 500 to 5000 nM |  | 
COc1cc2nccc(Oc3ccc(N4CCN(Cc5ccccc5)CC4=O)cc3)c2cc1OC [Example 116, 1-(4-{[6,7-bis(methyloxy)quinolin-4-yl]oxy}phenyl)-4-(phenylmethyl)piperazin-2-one] | 500 to 5000 nM | 500 to 5000 nM |  | 
COc1cc2nccc(Oc3ccc(NC(=O)[C@H](CC(C)C)NCc4ccccc4)cc3)c2cc1OC [Example 119, N1-(4-{[6,7-bis(methyloxy)quinolin-4-yl]oxy}phenyl)-N2-(phenylmethyl)leucinamide] | 500 to 5000 nM | 500 to 5000 nM |  | 
COc1cc2nccc(Oc3ccc(NC(=O)C(CC(C)C)N(C)Cc4ccccc4)cc3)c2cc1OC (stereo not shown) [Example 120, N1-(4-{[6,7-bis(methyloxy)quinolin-4-yl]oxy}phenyl)-N2-methyl-N2-(phenylmethyl) leucinamide] | 500 to 5000 nM | 500 to 5000 nM |  | 
COc1cc2nccc(Oc3ccc(NC(=O)[C@@H](NCc4ccccc4)C(C)C)cc3)c2cc1OC [Example 121, N1-(4-{[6,7-bis(methyloxy)quinolin-4-yl]oxy}phenyl)-N2-(phenylmethyl)valinamide] | 500 to 5000 nM | 500 to 5000 nM |  | 

Now from value to compound:

IC50 [1] | IC50 [2] | IC50 [2, 3] | IC50 [1, 3] | Compound
500 to 5000 nM |  |  |  | COc1cc2nccc(Oc3ccc(S(=O)(=O)N(C)CCCc4ccccc4)cc3F)c2cc1OC [Entry 25]
500 to 5000 nM |  |  |  | COc1cc2nccc(Oc3cc4sc(NC(=O)CCc5ccccc5)nc4cc3F)c2cc1OC [Entry 53]
500 to 5000 nM |  |  |  | COc1cc2nccc(Oc3ccc(NC(=O)C(=O)N[C@H]4CCc5ccccc5C4)cc3F)c2cc1OC [Entry 62]
500 to 5000 nM |  |  |  | COc1cc2nccc(Oc3ncc(NC(=O)CC(=O)Cc4ccccc4)cc3Cl)c2cc1OC [Entry 79]
50 to 500 nM |  |  |  | COc1cc2nccc(Oc3cc4sc(NCCOc5ccccc5)nc4cc3F)c2cc1OC [Entry 81]
500 to 5000 nM |  |  |  | COc1cc2nccc(Oc3cc4sc(N(C)CCc5ccccc5)nc4cc3F)c2cc1OC [Entry 83]
500 to 5000 nM |  |  |  | COc1cc2nccc(Oc3cc4sc(NCCN5CCCC5)nc4cc3F)c2cc1OC [Entry 84]
500 to 5000 nM |  |  |  | COc1cc2nccc(Oc3ncc(NC(=O)CC(=O)Nc4cccc(C(F)(F)F)c4)cc3Cl)c2cc1OC [Entry 87]
500 to 5000 nM |  |  |  | COc1cc2nccc(Oc3ncc(NC(=O)CN(Cc4ccccc4)C(=O)OC(C)(C)C)cc3Cl)c2cc1OC [Entry 92]
500 to 5000 nM |  |  |  | COc1cc2nccc(Oc3ccc(NC(=O)CN(C)CCc4cccc(C(F)(F)F)c4)cc3F)c2cc1OC [Entry 100]
50 to 500 nM | 50 to 500 nM |  |  | CO/N=C(\C)C(=O)Nc1ccc(Oc2ccnc3cc(OC)c(OC)cc23)cc1 [Example 108, (2E)-N-(4-{[6,7-bis(methyloxy)quinolin-4-yl]oxy}phenyl)-2-[(methyloxy)imino] propanamide]
50 to 500 nM | < 50 nM |  |  | CCO/N=C(\C)C(=O)Nc1ccc(Oc2ccnc3cc(OC)c(OC)cc23)cc1 [Example 109, (2E)-N-(4-{[6,7-bis(methyloxy)quinolin-4-yl]oxy}phenyl)-2-[(ethyloxy)imino] propanamide]
500 to 5000 nM | 50 to 500 nM |  |  | COc1cc2nccc(Oc3ccc(NC4=NC(Cc5ccccc5)CO4)cc3)c2cc1OC (stereo not shown) [Example 114, N-(4-{[6,7-bis(methyloxy)quinolin-4-yl]oxy}phenyl)-4-(phenylmethyl)-4,5-dihydro-1,3-oxazol-2-amine]
500 to 5000 nM | 500 to 5000 nM |  |  | COc1cc2nccc(Oc3ccc(N4CCN(Cc5ccccc5)CC4)cc3)c2cc1OC [Example 115, 6,7-bis(methyloxy)-4-({4-[4-(phenylmethyl)piperazin-1-yl]phenyl}oxy)quinoline]
500 to 5000 nM | 500 to 5000 nM |  |  | COc1cc2nccc(Oc3ccc(NC(=O)C(C)NCc4ccccc4)cc3)c2cc1OC (stereo not shown) [Example 117, N1-(4-{[6,7-bis(methyloxy)quinolin-4-yl]oxy}phenyl)-N2-(phenylmethy)alaninamide]
500 to 5000 nM | 500 to 5000 nM |  |  | COc1cc2nccc(Oc3ccc(NC(=O)C(C)N(C)Cc4ccccc4)cc3)c2cc1OC (stereo not shown) [Example 118, N1-(4-{[6,7-bis(methyloxy)quinolin-4-yl]oxy}phenyl)-N2-methyl-N2-(phenylmethyl) alaninamide]
 |  | < 50 nM | < 50 nM | COc1cc2c(Oc3ccc(NC(=O)C(=O)NCCc4ccccc4)cc3F)ccnc2cc1OCC1CNC1 [Example 249, N-(4-{[7-[(azetidin-3-ylmethyl)oxy]-6-(methyloxy)quinolin-4-yl]oxy}-3-fluorophenyl)-N′-(2-phenylethyl)ethanediamide]
 |  | 500 to 5000 nM | < 50 nM | COc1cc2nccc(Oc3ncc(NC(=O)CC(=O)Nc4ccc(F)cc4F)cc3Cl)c2cc1OC [Example 252, N-(6-{[6,7-bis(methyloxy)quinolin-4-yl]oxy}-5-chloropyridin-3-yl)-N′-(2,4-difluorophenyl)propanediamide]
 |  | 500 to 5000 nM | 50 to 500 nM | COc1cc2nccc(Oc3ncc(NC(=O)CC(=O)N(C)c4ccc(F)cc4)cc3Cl)c2cc1OC [Example 253, N′-(6-{[6,7-bis(methyloxy)quinolin-4-yl]oxy}-5-chloropyridin-3-yl)-N-(4-fluorophenyl)-N-methylpropanediamide]
 |  | < 50 nM | < 50 nM | COc1cc2c(Oc3ccc(NC(=O)C(=O)NCc4ccc(Cl)cc4)cc3F)ccnc2cc1OCC1CCNCC1 [Example 268, N-[(4-chlorophenyl)methyl]-N′-[3-fluoro-4-({6-(methyloxy)-7-[(piperidin-4-ylmethyl)oxy]quinolin-4-yl}oxy)phenyl]ethanediamide]
500 to 5000 nM |  |  |  | N-{3-fluoro-4-[(7-(methyloxy)-6- {[(1-methylpiperidin-4- yl)methyl]oxy}quinazolin-4- yl)oxy]phenyl}-N′-(4- fluorophenyl)cyclopropane-1,1- dicarboxamide [Entry 31]

From US8476298B2 (Exelixis, Inc., priority 2003, dated 2013)
